IC50 and inhibition data for four molecules are collected here from publication PMC11418212, “Characterization of four structurally diverse inhibitors of SUR2-containing KATP channels” (Channels, 2024).

“And” between values parts separate entries of the source, which are not always exact repeats. Identical values can stand only once. Where only a bound is given, the exact number is not on record here.

Common to all, as to assay: Kir family selectivity thallium flux assay
Format in all cases: cell-based

Assay [1] addresses T1, Kir2.2 (Homo sapiens, UniProt Q14500).
T1 construct: expressed in transfected cells
T1 sequence (Q14500 1-433): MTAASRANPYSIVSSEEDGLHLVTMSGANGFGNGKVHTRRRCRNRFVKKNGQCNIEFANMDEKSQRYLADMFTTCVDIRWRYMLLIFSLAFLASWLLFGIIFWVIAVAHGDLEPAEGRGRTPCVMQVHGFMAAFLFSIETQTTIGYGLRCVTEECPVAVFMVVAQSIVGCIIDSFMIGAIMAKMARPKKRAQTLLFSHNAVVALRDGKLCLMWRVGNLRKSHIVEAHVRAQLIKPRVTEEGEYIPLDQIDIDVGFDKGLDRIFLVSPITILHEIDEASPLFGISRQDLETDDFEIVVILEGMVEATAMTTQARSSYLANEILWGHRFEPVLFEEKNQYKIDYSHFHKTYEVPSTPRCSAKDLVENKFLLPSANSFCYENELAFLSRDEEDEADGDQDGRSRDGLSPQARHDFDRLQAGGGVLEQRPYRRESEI
The protocol:
(§1) Thallium flux assays were conducted using the established methods. Stably transfected T-REx-HEK-293 cells expressing Kir6.2/SUR1 or Kir6.1/SUR2B were cultured overnight in polyamine-coated plates (black-walled, clear-bottomed; BD, Bedford, MA) at a density of 20,000 cells in 20 µl per well of cell culture media. The expression of Kir6.2/SUR1 or Kir6.1/SUR2B channels was induced by treating cells with 1 µg/ml tetracycline overnight. The following day, cells were rinsed with an assay buffer (Hanks’ Balanced Salt Solution supplied with 20 mM HEPES), loaded with the thallium-sensor dye Brilliant Thallos-AM AM (Ion Bioscience, San Marcos, TX) for 1 h, and then washed again with assay buffer to remove unincorporated dye. The cell plate was subsequently placed in a Panoptic Kinetic Imaging Plate Reader (Wavefront Bioscience, Franklin, TN) and imaged at a frequency of 1 Hz using 482/35 nm (excitation) and 536/40 nm (emission) filter sets. Kir6.1/SUR2B channels were activated with 10 µM pinacidil, whereas Kir6.1/SUR1 was activated with 30 µM VU0071063 [34]. To activate KATP channels independent of activators with ATP-depletion method, cells were treated with a cocktail of metabolic inhibitors (2.5 mM sodium cyanide and 20 mM 2-deoxy glucose) for 25 min before imagine. Control and test compounds diluted freshly from DMSO stocks into assay buffer were added to wells for four minutes before adding 0.5 mM chloride-free thallium stimulus buffer (Ion Bioscience) to initiate thallium flux through the expressed KATP channels. Thallium flux was recorded from all 384-wells for 2 min before terminating the experiment. […] Selectivity assays against other Kir channels were performed as described previously.
(§2) To begin elucidating the binding site location of VU0212387, VU0543336, VU0605768, and VU0544086, we evaluated the activity of the inhibitors against KATP channels composed of different Kir and SUR subunit combinations expressed in HEK293 cells. Specifically, the compounds were tested against Kir6.1/SUR1, Kir6.2/SUR1, Kir6.1/SUR2A, Kir6.2/SUR2A, Kir6.1/SUR2B, and Kir6.2/SUR2B at a dose of 3 µM. […] We expanded the selectivity analysis to include 10 other members of the Kir channel family.

Assay [2] deals with T2, Kir1.1 (Homo sapiens, UniProt P48048).
T2 construct: expressed in transfected cells
T2 sequence (P48048 1-391): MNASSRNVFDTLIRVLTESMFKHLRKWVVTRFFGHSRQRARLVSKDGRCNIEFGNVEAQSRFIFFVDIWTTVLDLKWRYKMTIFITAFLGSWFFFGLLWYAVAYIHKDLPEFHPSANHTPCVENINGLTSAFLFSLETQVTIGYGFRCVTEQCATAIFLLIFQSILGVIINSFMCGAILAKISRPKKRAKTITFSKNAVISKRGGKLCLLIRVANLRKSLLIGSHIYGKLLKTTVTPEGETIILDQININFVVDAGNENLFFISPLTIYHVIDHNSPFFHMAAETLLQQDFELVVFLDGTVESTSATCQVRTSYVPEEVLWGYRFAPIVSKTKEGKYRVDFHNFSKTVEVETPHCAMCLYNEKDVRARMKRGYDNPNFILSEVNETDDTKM
The protocol:
as §1, §2

Assay [3] addresses T3, Kir4.2 (Homo sapiens, UniProt Q99712).
T3 construct: expressed in transfected cells
T3 sequence (Q99712 1-375): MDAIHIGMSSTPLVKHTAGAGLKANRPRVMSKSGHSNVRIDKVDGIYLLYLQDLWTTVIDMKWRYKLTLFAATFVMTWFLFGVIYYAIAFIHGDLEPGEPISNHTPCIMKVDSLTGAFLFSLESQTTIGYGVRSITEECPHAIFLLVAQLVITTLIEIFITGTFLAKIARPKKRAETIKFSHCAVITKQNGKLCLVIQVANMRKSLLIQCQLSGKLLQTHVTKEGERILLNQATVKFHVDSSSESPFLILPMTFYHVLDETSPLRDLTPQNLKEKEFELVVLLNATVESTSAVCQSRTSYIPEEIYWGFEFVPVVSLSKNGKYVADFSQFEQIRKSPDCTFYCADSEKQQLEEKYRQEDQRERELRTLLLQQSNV
The following applies: for IC50: thallium flux; for inhibition at 30 µM: observed at 30 µM, read-out: Percent maximal inhibition of Kir4.2. The protocol: as §1, §2

Assay [4] has as its target T4, Kir2.3 (Homo sapiens, UniProt P48050).
T4 construct: expressed in transfected cells
T4 sequence (P48050 1-445): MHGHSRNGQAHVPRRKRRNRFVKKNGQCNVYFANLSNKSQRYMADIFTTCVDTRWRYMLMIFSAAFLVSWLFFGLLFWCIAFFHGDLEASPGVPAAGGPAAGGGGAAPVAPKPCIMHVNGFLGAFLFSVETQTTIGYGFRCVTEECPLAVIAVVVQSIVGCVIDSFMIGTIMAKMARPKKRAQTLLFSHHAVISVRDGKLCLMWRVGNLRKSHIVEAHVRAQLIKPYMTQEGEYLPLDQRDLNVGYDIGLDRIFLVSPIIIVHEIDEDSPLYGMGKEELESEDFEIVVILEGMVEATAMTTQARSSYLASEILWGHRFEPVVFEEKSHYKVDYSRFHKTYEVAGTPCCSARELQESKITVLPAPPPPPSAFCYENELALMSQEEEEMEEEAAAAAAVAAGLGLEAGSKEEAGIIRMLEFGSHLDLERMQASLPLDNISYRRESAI
The protocol:
as §1, §2

For the molecule `O=C1c2oc3ccccc3c(=O)c2C(c2cccc(Br)c2)N1CCO` (stereo not drawn) [VU0605768, 1-(3-bromophenyl)-2-(2-hydroxyethyl)-1,2-dihydrochromeno[2,3-c]pyrrole-3,9-dione], the concentration for half-maximal inhibition (IC50) in assay [1], in assay [2], in assay [3] and in assay [4] was over 30 µM in each case.
Turning to `O=C(NCc1cc(-c2ccncc2)n(C2CCCC2)n1)Nc1cccs1` [VU0544086, 1-((1-cyclopentyl-5-(pyridin-4-yl)-1 H-pyrazol-3-yl)methyl)-3-(thiophen-2-yl)urea], the IC50 in assay [1], in assay [2], in assay [3] and in assay [4] was over 30 µM throughout.
Consider `c1ccc2[nH]c(CSc3ncnc4c3oc3ccccc34)nc2c1` [VU0212387, 4-(((1 H-benzo[d]imidazol-2-yl)methyl)thio)benzofuro[3,2-d]pyrimidine], for which the IC50 in assay [1] is over 30 µM; in assay [2], over 30 µM; in assay [3] it was 17 µM and 17.1 µM; in assay [4], over 30 µM. The inhibition at 30 µM in assay [3] is 56%.
Turning to `O=C(NCC(O)(c1ccccc1)C(F)(F)F)c1ccc(OC(F)(F)F)cc1` (stereo not drawn) [VU0543336, N-(3,3,3-trifluoro-2-hydroxy-2-phenylpropyl)-4-(trifluoromethoxy)benzamide], the IC50 is over 30 µM in assay [1]; over 30 µM in assay [2]; 12 µM and 11.8 µM in assay [3]; over 30 µM in assay [4]. Also, in assay [3], the inhibition at 30 µM was found to be 110%.
